Measurements reported in ChEMBL document CHEMBL5126518, “Quercetin derivatives: Drug design, development, and biological activities, a review” (Eur J Med Chem, 2022).
Converted amounts (≈) assume the structure as drawn.

How the values were obtained:
Assay type in all cases: functional
Candida albicans [1] = assay: Antifungal activity against Candida albicans 527/14 assessed as fungal growth inhibition measured after 24 hrs by microdilution assay
Candida albicans [2] = assay: Antibiofilm activity against Candida albicans 475/15 assessed as inhibition of biofilm formation measured after 24 hrs by crystal violet staining based analysis relative to control; parameters: scale not given: the % may be the effect or the level left
Candida albicans [3] = assay: Antifungal activity against Candida albicans 13/15 assessed as fungal growth inhibition measured after 24 hrs by microdilution assay
Candida albicans [4] = assay: Antifungal activity against Candida albicans 475/15 assessed as fungal growth inhibition measured after 24 hrs by microdilution assay
Candida albicans [5] = assay: Antifungal activity against Candida albicans 10/15 assessed as fungal growth inhibition measured after 24 hrs by microdilution assay

O=c1c(O[C@@H]2O[C@H](CO)[C@@H](O)[C@H](O)[C@H]2O)c(-c2ccc(O)c(O)c2)oc2cc(O)cc(O)c12 [ISOQUERCETIN]
MIC (Candida albicans [1]): 37.5 µg/mL (≈ 80.8 µM) | Activity (Candida albicans [2]): 76% | MIC (Candida albicans [3]): 37.5 µg/mL (≈ 80.8 µM) | MIC (Candida albicans [4]): 37.5 µg/mL (≈ 80.8 µM) | MIC (Candida albicans [5]): 37.5 µg/mL (≈ 80.8 µM)
